The numbers were not newly measured in US20090264421A1 (priority 2007, published 2009), which cites them from elsewhere.

In one series the target is T1, glutaredoxin (Homo sapiens, UniProt P35754).
T1 sequence (P35754 1-106): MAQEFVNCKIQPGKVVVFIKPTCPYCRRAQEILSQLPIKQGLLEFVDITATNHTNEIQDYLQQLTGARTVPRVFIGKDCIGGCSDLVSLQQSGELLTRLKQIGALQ
As to conditions: cited from earlier work.

The next series has as its target T2, TrxR1 (Homo sapiens, UniProt Q16881).
T2 sequence (Q16881 1-499 isoform Q16881-5): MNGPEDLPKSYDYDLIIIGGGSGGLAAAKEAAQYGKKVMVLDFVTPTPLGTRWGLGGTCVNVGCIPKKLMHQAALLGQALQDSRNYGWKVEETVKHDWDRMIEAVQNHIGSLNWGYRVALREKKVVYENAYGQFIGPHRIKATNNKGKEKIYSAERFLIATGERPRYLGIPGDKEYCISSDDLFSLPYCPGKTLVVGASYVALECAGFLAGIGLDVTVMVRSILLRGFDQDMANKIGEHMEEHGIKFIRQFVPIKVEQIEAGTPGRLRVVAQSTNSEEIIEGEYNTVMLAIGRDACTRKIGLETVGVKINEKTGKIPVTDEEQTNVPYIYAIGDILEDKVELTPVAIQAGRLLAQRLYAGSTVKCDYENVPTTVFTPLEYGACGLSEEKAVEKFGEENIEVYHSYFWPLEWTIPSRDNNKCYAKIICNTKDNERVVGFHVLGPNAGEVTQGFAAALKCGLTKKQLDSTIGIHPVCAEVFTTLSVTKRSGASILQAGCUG
To be noted: cited from earlier work.

On to `COc1c(Cl)cc2c(c1OC)N(C)[C@@H]1N3C(=O)[C@@]4(C)SS[C@@]3(C(=O)N4C)[C@H](O)[C@]21O` [sporidesmin], for which the glutaredoxin inhibition entry on glutaredoxin is recorded as “inhibitor of glutaredoxin”. Besides, the TrxR1 inhibition entry on TrxR1 is on record as “not to significantly inhibit TrxR1”.
